Data reported in the CheMixHub viscosity set.
“And” between values parts separate entries of the source, which are not always exact repeats. Equal values may be shown once. ± gives the uncertainty stated by the source.

Experiment: xn = mol fraction of the nth substance listed

ClC(Cl)=C(Cl)Cl + Cc1ccccc1
303.15 K, 101 kPa
Settings | viscosity [mPa·s]
x1 = 0.1502 | 0.551 ± 0.013
x1 = 0.2552 | 0.574 ± 0.006
x1 = 0.2612 | 0.574 ± 0.012
x1 = 0.3392 | 0.597 ± 0.006
x1 = 0.3745 | 0.599 ± 0.012
x1 = 0.4608 | 0.621 ± 0.006
x1 = 0.4715 | 0.629 ± 0.011
x1 = 0.5666 | 0.662 ± 0.01
x1 = 0.5759 | 0.652 ± 0.006
x1 = 0.6428 | 0.691 ± 0.01
x1 = 0.6834 | 0.688 ± 0.007
x1 = 0.6905 | 0.708 ± 0.01
x1 = 0.7448 | 0.706 ± 0.007
x1 = 0.7529 | 0.73 ± 0.009
x1 = 0.8376 | 0.76 ± 0.009
x1 = 0.8395 | 0.738 ± 0.007
x1 = 0.9336 | 0.793 ± 0.008

CCCCCCCC + c1ccccc1
298.15 K, 101.33 kPa
Settings | viscosity [mPa·s]
x1 = 0.04472 | 0.5829 ± 0.0053
x1 = 0.09184 | 0.5595 ± 0.0051
x1 = 0.1715 | 0.5352 ± 0.0049
x1 = 0.2954 | 0.5061 ± 0.0047
x1 = 0.4088 | 0.4934 ± 0.0046
x1 = 0.4907 | 0.4904 ± 0.0046
x1 = 0.5855 | 0.4924 ± 0.0046
x1 = 0.739 | 0.4929 ± 0.0046
x1 = 0.928 | 0.5124 ± 0.0048

c1ccccc1 + CCCCO
Settings | viscosity
293.15 K, 101.33 kPa, x2 = 0.2 | 0.714 ± 0.014 mPa·s and 0.714 ± 0.019 mPa·s
293.15 K, 101.33 kPa, x2 = 0.4 | 0.898 ± 0.024 mPa·s
293.15 K, 101.33 kPa, x2 = 0.5 | 1.054 ± 0.021 mPa·s and 1.054 ± 0.029 mPa·s
293.15 K, 101.33 kPa, x2 = 0.6 | 1.279 ± 0.035 mPa·s
293.15 K, 101.33 kPa, x2 = 0.8 | 1.92 ± 0.053 mPa·s
298.15 K, 101 kPa, x1 = 0.082 | 2.158 ± 0.022 mPa·s
298.15 K, 101 kPa, x1 = 0.151 | 1.88 ± 0.019 mPa·s
298.15 K, 101 kPa, x1 = 0.254 | 1.511 ± 0.016 mPa·s
298.15 K, 101 kPa, x1 = 0.345 | 1.277 ± 0.013 mPa·s
298.15 K, 101 kPa, x1 = 0.52 | 0.919 ± 0.01 mPa·s
298.15 K, 101 kPa, x1 = 0.678 | 0.754 ± 0.008 mPa·s
298.15 K, 101 kPa, x1 = 0.841 | 0.63 ± 0.007 mPa·s
298.15 K, 101 kPa, x1 = 0.915 | 0.601 ± 0.006 mPa·s
298.15 K, 101 kPa, x2 = 0.05 | 0.604 ± 0.016 mPa·s
298.15 K, 101 kPa, x2 = 0.1 | 0.62 ± 0.016 mPa·s
298.15 K, 101 kPa, x2 = 0.16 | 0.64 ± 0.017 mPa·s
298.15 K, 101 kPa, x2 = 0.21 | 0.664 ± 0.018 mPa·s
298.15 K, 101 kPa, x2 = 0.41 | 0.842 ± 0.022 mPa·s
298.15 K, 101 kPa, x2 = 0.51 | 1.006 ± 0.026 mPa·s
298.15 K, 101 kPa, x2 = 0.61 | 1.178 ± 0.031 mPa·s
298.15 K, 101 kPa, x2 = 0.81 | 1.684 ± 0.044 mPa·s
298.15 K, 101.33 kPa, x2 = 0.2 | 0.655 ± 0.013 mPa·s
298.15 K, 101.33 kPa, x2 = 0.216 | 0.657 ± 0.004 mPa·s
298.15 K, 101.33 kPa, x2 = 0.409 | 0.824 ± 0.005 mPa·s
298.15 K, 101.33 kPa, x2 = 0.604 | 1.119 ± 0.007 mPa·s
298.15 K, 101.33 kPa, x2 = 0.808 | 1.71 ± 0.011 mPa·s
303 K, 101.3 kPa, x1 = 0.1035 | 1.9 ± 0.059 mPa·s
303 K, 101.3 kPa, x1 = 0.2024 | 1.601 ± 0.053 mPa·s
303 K, 101.3 kPa, x1 = 0.3037 | 1.344 ± 0.048 mPa·s
303 K, 101.3 kPa, x1 = 0.4 | 1.145 ± 0.045 mPa·s
303 K, 101.3 kPa, x1 = 0.5047 | 0.9759 ± 0.042 mPa·s
303 K, 101.3 kPa, x1 = 0.5931 | 0.8562 ± 0.041 mPa·s
303 K, 101.3 kPa, x1 = 0.7016 | 0.7412 ± 0.039 mPa·s
303 K, 101.3 kPa, x1 = 0.766 | 0.6921 ± 0.038 mPa·s
303 K, 101.3 kPa, x1 = 0.8859 | 0.611 ± 0.037 mPa·s
303.15 K, 101 kPa, x1 = 0.082 | 1.918 ± 0.019 mPa·s
303.15 K, 101 kPa, x1 = 0.151 | 1.668 ± 0.017 mPa·s
303.15 K, 101 kPa, x1 = 0.254 | 1.354 ± 0.014 mPa·s
303.15 K, 101 kPa, x1 = 0.345 | 1.145 ± 0.012 mPa·s
303.15 K, 101 kPa, x1 = 0.52 | 0.838 ± 0.009 mPa·s
303.15 K, 101 kPa, x1 = 0.678 | 0.694 ± 0.007 mPa·s
303.15 K, 101 kPa, x1 = 0.841 | 0.587 ± 0.006 mPa·s
303.15 K, 101 kPa, x1 = 0.915 | 0.564 ± 0.006 mPa·s
303.15 K, 101.33 kPa, x2 = 0.2 | 0.604 ± 0.016 mPa·s
303.15 K, 101.33 kPa, x2 = 0.4 | 0.746 ± 0.02 mPa·s
303.15 K, 101.33 kPa, x2 = 0.5 | 0.864 ± 0.024 mPa·s
303.15 K, 101.33 kPa, x2 = 0.6 | 1.021 ± 0.028 mPa·s
303.15 K, 101.33 kPa, x2 = 0.8 | 1.49 ± 0.041 mPa·s
308.15 K, 101 kPa, x1 = 0.082 | 1.702 ± 0.017 mPa·s
308.15 K, 101 kPa, x1 = 0.151 | 1.49 ± 0.015 mPa·s
308.15 K, 101 kPa, x1 = 0.254 | 1.209 ± 0.012 mPa·s
308.15 K, 101 kPa, x1 = 0.345 | 1.032 ± 0.011 mPa·s
308.15 K, 101 kPa, x1 = 0.52 | 0.764 ± 0.008 mPa·s
308.15 K, 101 kPa, x1 = 0.678 | 0.64 ± 0.007 mPa·s
308.15 K, 101 kPa, x1 = 0.841 | 0.549 ± 0.006 mPa·s
308.15 K, 101 kPa, x1 = 0.915 | 0.529 ± 0.006 mPa·s
308.15 K, 101.33 kPa, x2 = 0.2 | 0.562 ± 0.011 mPa·s and 0.562 ± 0.015 mPa·s
308.15 K, 101.33 kPa, x2 = 0.216 | 0.564 ± 0.003 mPa·s
308.15 K, 101.33 kPa, x2 = 0.4 | 0.687 ± 0.019 mPa·s
308.15 K, 101.33 kPa, x2 = 0.409 | 0.691 ± 0.004 mPa·s
308.15 K, 101.33 kPa, x2 = 0.5 | 0.791 ± 0.016 mPa·s and 0.791 ± 0.021 mPa·s
308.15 K, 101.33 kPa, x2 = 0.6 | 0.924 ± 0.025 mPa·s
308.15 K, 101.33 kPa, x2 = 0.604 | 0.911 ± 0.005 mPa·s
308.15 K, 101.33 kPa, x2 = 0.8 | 1.335 ± 0.036 mPa·s
308.15 K, 101.33 kPa, x2 = 0.808 | 1.353 ± 0.008 mPa·s
313.15 K, 101 kPa, x1 = 0.082 | 1.51 ± 0.015 mPa·s
313.15 K, 101 kPa, x1 = 0.151 | 1.336 ± 0.014 mPa·s
313.15 K, 101 kPa, x1 = 0.254 | 1.086 ± 0.011 mPa·s
313.15 K, 101 kPa, x1 = 0.345 | 0.934 ± 0.01 mPa·s
313.15 K, 101 kPa, x1 = 0.52 | 0.702 ± 0.007 mPa·s
313.15 K, 101 kPa, x1 = 0.678 | 0.593 ± 0.006 mPa·s
313.15 K, 101 kPa, x1 = 0.841 | 0.513 ± 0.005 mPa·s
313.15 K, 101 kPa, x1 = 0.915 | 0.494 ± 0.005 mPa·s
318.15 K, 101 kPa, x1 = 0.082 | 1.351 ± 0.014 mPa·s
318.15 K, 101 kPa, x1 = 0.151 | 1.195 ± 0.012 mPa·s
318.15 K, 101 kPa, x1 = 0.254 | 0.979 ± 0.01 mPa·s
318.15 K, 101 kPa, x1 = 0.345 | 0.847 ± 0.009 mPa·s
318.15 K, 101 kPa, x1 = 0.52 | 0.645 ± 0.006 mPa·s
318.15 K, 101 kPa, x1 = 0.678 | 0.553 ± 0.006 mPa·s
318.15 K, 101 kPa, x1 = 0.841 | 0.48 ± 0.005 mPa·s
318.15 K, 101 kPa, x1 = 0.915 | 0.465 ± 0.005 mPa·s

CCCCC(C)=O + CCCCOC(C)=O
298.15 K, 101.33 kPa
Settings | viscosity [mPa·s]
x2 = 0.1073 | 0.595 ± 0.005
x2 = 0.1861 | 0.601 ± 0.005
x2 = 0.3117 | 0.611 ± 0.005
x2 = 0.4115 | 0.62 ± 0.005
x2 = 0.5224 | 0.63 ± 0.005
x2 = 0.6318 | 0.64 ± 0.005
x2 = 0.7471 | 0.649 ± 0.005
x2 = 0.8669 | 0.663 ± 0.006

CC12CC3CC(C)(C1)CC(C)(C3)C2 + c1ccc2c(c1)CCCC2
viscosity [mPa·s], 100 kPa
Settings | x1 = 0.1006 | x1 = 0.2003 | x1 = 0.2993 | x1 = 0.4002 | x1 = 0.4993 | x1 = 0.6013 | x1 = 0.7012 | x1 = 0.8008 | x1 = 0.9005
293.15 K | 2.14 ± 0.09 | 2.1 ± 0.09 | 2.1 ± 0.09 | 2.12 ± 0.09 | 2.16 ± 0.09 | 2.22 ± 0.09 | 2.29 ± 0.09 | 2.38 ± 0.1 | 2.5 ± 0.1
298.15 K | 1.93 ± 0.08 | 1.9 ± 0.08 | 1.9 ± 0.08 | 1.92 ± 0.08 | 1.95 ± 0.08 | 2 ± 0.08 | 2.07 ± 0.08 | 2.15 ± 0.09 | 2.25 ± 0.09
303.15 K | 1.76 ± 0.07 | 1.73 ± 0.07 | 1.73 ± 0.07 | 1.75 ± 0.07 | 1.78 ± 0.07 | 1.82 ± 0.07 | 1.88 ± 0.08 | 1.95 ± 0.08 | 2.04 ± 0.08
308.15 K | 1.61 ± 0.07 | 1.59 ± 0.07 | 1.59 ± 0.07 | 1.6 ± 0.07 | 1.62 ± 0.07 | 1.67 ± 0.07 | 1.72 ± 0.07 | 1.78 ± 0.07 | 1.85 ± 0.08
313.15 K | 1.48 ± 0.06 | 1.46 ± 0.06 | 1.46 ± 0.06 | 1.47 ± 0.06 | 1.49 ± 0.06 | 1.53 ± 0.06 | 1.57 ± 0.06 | 1.63 ± 0.07 | 1.7 ± 0.07
318.15 K | 1.37 ± 0.06 | 1.35 ± 0.06 | 1.35 ± 0.06 | 1.36 ± 0.06 | 1.38 ± 0.06 | 1.41 ± 0.06 | 1.45 ± 0.06 | 1.5 ± 0.06 | 1.56 ± 0.06
323.15 K | 1.26 ± 0.05 | 1.25 ± 0.05 | 1.25 ± 0.05 | 1.26 ± 0.05 | 1.28 ± 0.05 | 1.31 ± 0.05 | 1.34 ± 0.05 | 1.39 ± 0.06 | 1.44 ± 0.06
